Drawing on PubChem BioAssay (NCI), this text covers GI50 and TGI for eleven compounds.

What all share (assay): NCI tumour cell line growth inhibition, 48 h
Assay [1] relates to EKVX NSCLC.
For assay [2], the system named is HOP-62 NSCLC.
For assay [3], the system named is M14 melanoma.
Assay [4] deals with MDA-MB-231 breast.
The test system of assay [5] is NCI-H522 lung.
Assay [6] has as its system OVCAR-5 ovarian.
In assay [7] the test system is RPMI-8226 leukemia.
Assay [8] deals with SF-268 CNS.
The subject of assay [9] is DLD-1 colon.
Assay [10] concerns DMS 114 small cell lung.
Assay [11] relates to LXFL 529 NSCLC.

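Growth conditions: 96-well plates. Treatment: test compound, 48 hours, 5 concentrations. Analysis: linear interpolation between bracketing concentrations; unreached endpoints set to highest concentration. GI50 is the concentration that inhibits growth by half. TGI is the concentration that stops growth completely.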 Where only a bound is given, the exact number is not on record here.

On to `O=C1CCc2c(sc3[nH]c(=S)n(-c4cc(C(F)(F)F)cc(C(F)(F)F)c4)c(=O)c23)C1`, for which the GI50 was 378 nM in assay [1]; 0.553 µM in assay [2]; 0.463 µM in [3]; 0.336 µM in [4]; 344 nM in assay [5]; 438 nM in assay [6]. For the same compound, the GI50 in [7] was 0.411 µM; in [8] it was 0.469 µM. Besides, the TGI in [1] stood at 5.14 µM; in assay [2], 11.8 µM; in assay [3], 11.9 µM; in assay [4], 1.45 µM; in assay [5], 1.5 µM; in assay [6], 2.19 µM. For the same compound, the TGI in assay [7] was 3.03 µM; in assay [8], above 45.4 µM.
`COC(=O)c1cc(-c2ccccc2)[nH]c1N/N=C/c1c(Cl)cccc1Cl`: the GI50 was 454 nM in assay [1]; 0.471 µM in assay [2]; 0.24 µM in [3]; 0.474 µM in assay [4]; 260 nM in assay [5]; 732 nM in [6]. Further, the GI50 in [7] is 0.243 µM; in [8], 0.436 µM. Besides, the TGI in assay [1] is above 37.3 µM; in [2], above 33.6 µM; in assay [3], 1.37 µM; in assay [4], 6.85 µM; in assay [6] it was 16.7 µM; in [7] it was 0.753 µM. The TGI in [8] was 8.25 µM.
Regarding `Cc1cc(N(CCC#N)S(=O)(=O)c2ccccc2)ccc1/C=C1\N=C(c2ccc(Cl)cc2)OC1=O`, the TGI in assay [9], in assay [10], in [1], in assay [11], in [3] and in [6] was above 100 µM each time. For the same compound, the TGI in assay [7] and in assay [8] was above 100 µM in each case.
With `C=C1CC(CC)(CCN2C(=O)c3ccccc3C2=O)OC1=O` (stereo not drawn), the TGI is 80.7 µM in assay [9]; 43 µM in assay [10]; 31.1 µM in [1]; above 100 µM in assay [2]; 27.1 µM in assay [11]; 22.8 µM in [3]. For the same compound, the TGI in assay [5] is 11.8 µM; in [7], above 100 µM; in assay [8], 21.4 µM.
On to `Nc1ccn(C2CC(F)C(CO)O2)c(=O)n1` (stereo not drawn), for which the GI50 is above 100000 nM in assay [1]; above 100 µM in assay [2]; above 100 µM in assay [3]; above 100 µM in assay [4]; above 100000 nM in assay [5]; above 100000 nM in assay [6]. Besides, the GI50 in assay [7] and in [8] was above 100 µM in each case. Further, the TGI in [1], in assay [2], in [3], in [4], in assay [5] and in assay [6] was above 100 µM each time. Besides, the TGI in assay [7] and in assay [8] was above 100 µM throughout.
Take `NC(=N\N=C/c1ccc(O)cc1)/C(N)=N\N=C/c1ccc(O)cc1`: the GI50 in assay [1] was above 87900 nM; in assay [2], 20.7 µM; in assay [3], 5.56 µM; in [4], 10.7 µM; in assay [5], 520 nM; in assay [6], above 100000 nM. Moreover, the results for the GI50 in assay [7] and in assay [8] were above 24.8 µM and 16.4 µM, respectively. Besides, the TGI in assay [1] is above 100 µM; in [2], 67.1 µM; in assay [3], above 100 µM; in assay [4] it was above 100 µM; in [5], above 100 µM; in [6], above 100 µM. Besides, the TGI in [7] and in [8] was above 100 µM in each case.
On to `[2H]C([2H])([2H])NC(=O)c1nnc(NC(=O)C2CC2)cc1Nc1cccc(-c2ncn(C)n2)c1OC`, for which the GI50 in [1] is 81400 nM; in assay [2] it was 15.5 µM; in assay [3] it was 9.22 µM; in assay [4], 19.1 µM; in assay [5] it was 23000 nM; in [6], above 100000 nM. For the same compound, the GI50 in [7] was 14.2 µM; in assay [8] it was 45.7 µM. Further, the TGI in assay [1], in assay [2], in assay [3], in assay [4], in assay [5] and in assay [6] was above 100 µM in each case. Further, the TGI in [7] and in [8] was above 100 µM each time.
On to `CN(C)c1ccc(Nc2c3ccccc3nc3ccccc23)cc1`, for which the GI50 in assay [1] is 1400 nM; in assay [2], 1.14 µM; in [3], 1.22 µM; in assay [4], 1.3 µM; in assay [5], 685 nM; in assay [6] it was 1540 nM. Besides, the GI50 in assay [7] was 0.984 µM; in [8], 1.52 µM. In addition, the TGI in [1] was found to be 6.35 µM; in [2], 2.59 µM; in assay [3] it was 2.61 µM; in assay [4] it was 3.32 µM; in assay [5], 2.52 µM; in [6] it was 6.72 µM. The values for the TGI in assay [7] and in assay [8] were 3.9 µM and 7.83 µM, respectively.
`c1ccc(-c2nn3c(c2-c2ccnc4cc(OCCN5CCOCC5)ccc24)CCC3)nc1`: the GI50 in [1] was above 100000 nM; in assay [2] it was 99.4 µM; in assay [3] it was 70.8 µM; in assay [4] it was above 100 µM; in [5], 44800 nM; in [6], 72100 nM. Further, the GI50 in assay [7] was 53.7 µM; in assay [8] it was above 77.1 µM. In addition, the TGI in [1], in [2], in assay [3], in [4], in assay [5] and in assay [6] was above 100 µM in each case. Moreover, the TGI in assay [7] and in assay [8] was above 100 µM in each case.
Consider `COC1C(OC(=O)c2ccc(C)[nH]2)C(O)C(Oc2ccc3c(O)c(NC(=O)c4c[nH]c(C(=O)Nc5c(O)c6ccc(OC7OC(C)(C)C(OC)C(OC(=O)c8ccc(C)[nH]8)C7O)c(C)c6oc5=O)c4C)c(=O)oc3c2C)OC1(C)C` (stereo not drawn), for which the TGI stood at 6.08 µM in assay [9]; 6.75 µM in assay [10]; 19.2 µM in [1]; 8.03 µM in assay [11]; 9.96 µM in assay [6]; 4.83 µM in assay [7]. In [8], this compound had a TGI of 7.44 µM.
As for `OC1(c2ccccc2)C2CC=CC2C1(c1ccccc1)c1ccccc1` (stereo not drawn), the TGI was 76.4 µM in assay [1]; above 100 µM in assay [2]; above 100 µM in [3]; above 100 µM in assay [4]; 32.7 µM in assay [5]; above 100 µM in assay [6]. Also, the TGI in assay [7] is 86.5 µM; in [8], above 100 µM.
